pIC50: −log10 of the molar value.
Legend:
Type in all cases: biochemical
Details in all cases: HeLa S3 lysate, sfGFP/mCherry ratio, 2 hrs at 30° C.
[1] = test system: MYC; assay: In vitro transcription-translation (IVTT) assay, MYC reporter
Procedure, shortened: (§1)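 Reporter: mCherry, P2A, then 3×FLAG-target peptide-sfGFP fusion, IRES-initiated; HeLa S3 lysate IVTT; cpd dilutions 30 μM−0.1 μM half-log in 100% DMSO (dilution-plate conc); DNA added last; 2 h, 30° C; PBS quench.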

[2] = test system: MCL-1; assay: In vitro transcription-translation (IVTT) assay, MCL-1 reporter
Procedure, shortened: as §1

[3] = test system: BCL-2; assay: In vitro transcription-translation (IVTT) assay, BCL-2 reporter
Source text: All reporter constructs have been cloned into the pT7CFE1-CHis plasmid (ThermoFisher #88860) using Gibson assembly procedures (NEB #E2611L). The parental pT7CFE1-CHis plasmid contains an EMCV IRES at the 5′UTR for translation initiation, a multiple-cloning site (MCS) for gene insertion, an optional C-terminal His-epitope tag, and polyA sequence in the 3′UTR to regulate mRNA stability. All reporters are designed to be inserted at the MCS to include a red fluorescent protein (mCherry), P2A self-cleaving peptide which releases the preceding mCherry protein product, and a fusion open reading frame containing a 3×FLAG epitope, a peptide sequence of interest (TEST), and green fluorescent protein (sfGFP).
Construct Plasmid Preparation: All plasmids are isolated from MACH1 cells (ThermoFisher) grown overnight in ampicillin-containing luria broth, and purified using ZymoPure Express Plasmid Midiprep Kit (Zymo Research). Constructs are sequenced verified and diluted to a working concentration of 110 ng/μL.
HeLa S3 Lysate Preparation: HeLa S3 cell pellets are acquired from Ipracell/Ipratech (Belgium) and shipped as 4 mL frozen cell pellets on dry ice for storage at −80° C. until use. The procedure for lysate preparation is as follows. Prepare 1× Lysis Buffer, cold and stored on ice:
Each preparation takes 8 cell pellets (4 ml packed volume each, approximately 1.0×10^9 cells per pellet). Thaw cell pellets from −80° C. on ice for 90 mins. Lay pellets horizontally on top of the ice and rotate every 30 mins to ensure even thawing. Once thawed, add 4 mL of cold lysis buffer to each pellet, and using a serological pipet, gently pipet up and down to break up clumps. Incubate resuspended cells in ice for an additional 30 mins (plunged into ice). During 30 min incubation, rinse and RNase-zap (Ambion) glass dounces (use loose pestle “A”), gently dry and place on ice until needed. Prepare RNase-free Eppendorf tubes for spinning and for batch storage. Add batch labels to 1.5-1.7 mL RNase-free microcentrifuge tubes (labeling scheme below). Each batch will have an extra 1.5-1.7 mL RNase-free microcentrifuge tube for 40 μL of lysate, label the top of this tube (labeling scheme below). After 30 min incubation, transfer all 8 mL of cell pellet to dounce. Cell lysis is complete after douncing 100 times. Aliquot cell lysis into 1.5-1.7 mL temporary-microcentrifuge tubes. Place tubes in centrifuge with “fins” out, and spin at 1,200×g for 5 mins. After the first spin use a 1 mL pipet to resuspend each tube and repeat spin. This acts as an additional lysis step, is more vigorous and increases lysate yield. During second spin get liquid N2 and a fresh conical tube on ice. After spin is complete, transfer supernatant (lysate) from microcentrifuge tubes into the 50 mL conical tube and keep on ice. Repeat steps 10-14 for all other cell pellets until completed. Once all cell lysate has been transferred to the 50 mL conical tube pipet to mix so the solution is homogenous. Transfer 1 mL of lysate into batch-labeled microcentrifuge tubes and flash freeze in liquid nitrogen. Be sure to pipet up and down to mix throughout transfer step. Place all tubes in the […] for long-term storage.
In vitro transcription-translation assay setup: Each assay includes a master mix containing lysate and shared components, a 96-well plate containing compound titrations for testing, a 96-well DNA plate with reporter constructs to be tested, 96-well skirted PCR plates, and 96-well flat-bottom, black, fluorescent assay plates. […]

[4] = test system: CCND1; assay: In vitro transcription-translation (IVTT) assay, CCND1 reporter
Procedure, shortened: as §1

[5] = test system: ALK; assay: In vitro transcription-translation (IVTT) assay, ALK reporter
Procedure, shortened: as §1

[6] = test system: KRAS G12D; assay: In vitro transcription-translation (IVTT) assay, KRAS G12D reporter
Procedure, shortened: as §1

pIC50 [1]	pIC50 [2]	pIC50 [3]	pIC50 [4]	pIC50 [5]	pIC50 [6]	Structure (SMILES)
< 4.52	< 4.52	< 4.52	< 4.52	–	–	COc1ccc(C[C@H]2NC[C@H](O)[C@H]2OC(=O)NCc2cccc(-c3ccccc3)c2)cc1 [V187982, (2R,3S,4S)-4-hydroxy-2-[(4-methoxyphenyl)methyl]pyrrolidin-3-yl N-{[1,1′-biphenyl]-3-ylmethyl}carbamate]
> 5.00	> 5.00	> 5.00	> 5.00	–	–	COc1ccc(C[C@H]2NC[C@H](O)[C@H]2OC(=O)NCc2cccnn2)cc1 [V187916, (2R,3S,4S)-4-hydroxy-2-[(4-methoxyphenyl)methyl]pyrrolidin-3-yl N-(pyridazin-3-ylmethyl)carbamate]
> 5.00	> 5.00	> 5.00	> 5.00	> 5.00	> 5.00	COc1ccc(C[C@H]2NC[C@H](O)[C@H]2OC(=O)NCCc2cnc[nH]2)cc1 [V187593, (2R,3S,4S)-4-hydroxy-2-[(4-methoxyphenyl)methyl]pyrrolidin-3-yl N-[2-(3H-imidazol-4-yl)ethyl]carbamate]
< 4.52	< 4.52	< 4.52	< 4.52	–	–	COc1ccc(C[C@H]2NC[C@H](O)[C@H]2OC(=O)NCC(=O)O)cc1 [V188016]
4.52 to 4.70	< 4.52	< 4.52	< 4.52	–	–	COc1ccc(C[C@H]2NC[C@H](O)[C@H]2OC(=O)NCCNc2nc(N)nc3nc[nH]c23)cc1 [Cmpd V188056]
> 5.00	> 5.00	> 5.00	> 5.00	–	–	COc1ccc(C[C@H]2NC[C@H](O)[C@H]2OC(=O)NCc2cc(Cl)[nH]n2)cc1 [Cmpd V187860]
4.70 to 5.00	> 5.00	4.52 to 4.70	< 4.52	–	–	COc1ccc(C[C@H]2NC[C@H](O)[C@H]2OC(=O)NCC(=O)N[C@@H](C)C(N)=O)cc1 [Cmpd V188022]
> 5.00	> 5.00	> 5.00	–	> 5.00	> 5.00	COc1ccc(C[C@H]2NC[C@H](O)[C@H]2OC(=O)NCCc2ccncc2)cc1 [V187807, (2R,3S,4S)-4-hydroxy-2-[(4-methoxyphenyl)methyl]pyrrolidin-3-yl N-[2-(pyridin-4-yl)ethyl]carbamate]
< 4.52	< 4.52	< 4.52	< 4.52	–	–	COc1ccc(C[C@H]2NC[C@H](O)[C@H]2OC(=O)NCC2(F)CNC2)cc1 [V187877, (2R,3S,4S)-4-hydroxy-2-[(4-methoxyphenyl)methyl]pyrrolidin-3-yl N-[(3-fluoroazetidine-3-yl)methyl]carbamate]
> 5.00	> 5.00	4.52 to 4.70	4.70 to 5.00	–	–	COc1ccc(C[C@H]2NC[C@H](O)[C@H]2OC(=O)NCCc2ccn(C)n2)cc1 [V187847, (2R,3S,4S)-4-hydroxy-2-[(4-methoxyphenyl)methyl]pyrrolidin-3-yl N-[2-(1-methylpyrazol-3-yl)ethyl]carbamate]
> 5.00	> 5.00	4.70 to 5.00	> 5.00	–	–	COc1ccc(C[C@H]2NC[C@H](O)[C@H]2OC(=O)NNC(=O)c2ccccc2)cc1 [V187812, N′-({[(2R,3S,4S)-4-hydroxy-2-[(4-methoxyphenyl)methyl]pyrrolidin-3-yl]oxy}carbonyl)benzohydrazide]
